From patent US5798336A, “Antimicrobial peptides” (priority 1995, dated 1998)
Where a SMILES comes first, the peptide text is derived from it.

Assays:
S. aureus strain 8325-4 [1] = conditions: HBSS, optimal conditions
S. aureus = assay type: cell-based, Staphylococcus aureus; conditions: Table 11; 50 μg/ml; 1% TSB, 2 h at 37° C.
P. aeruginosa = test: Bactericidal capacity of cathepsin G in 1% TSB, P. aeruginosa; assay type: cell-based, Pseudomonas aeruginosa; conditions: Table 11, 50 μg/ml, 2 h at 37° C.
[2] = tested on: P. aeruginosa clinical isolates; assay type: cell-based, Pseudomonas aeruginosa; conditions: four independent clinical isolates
Excerpt: P. aeruginosa ATCC 27853 (American Type Culture Collection, Rockville, Md.) is the strain used for testing antimicrobial activity against P. aeruginosa unless otherwise noted. It is a standardized strain for antibiotic-susceptibility testing of pseudomonads (see, e.g., Code of Federal Regulations, Title 21, Part 460, 1987). […] Agents effective against P. aeruginosa are needed in the art because multiple antibiotic resistance is quite common among clinical strains, and therefore resultant infections are often difficult to treat.
^1 3-5 × 10^7 CFU/ml of the designated strains were exposed
to 500 μg/ml of HPLCpurified peptides in 1/100 strength BHSS (10 mm
sodium phosphate, pH 7.0, 10 mM NaCl.

S. aureus strain 8325-4 [3] = conditions: strain 8325-4, 500
P. aeruginosa ATCC 27853 = conditions: Table 7A; RP-HPLC-purified peptides 500 μg/ml

| Compound | ED50 for S. aureus (S. aureus strain 8325-4 [1]) | Log Reduction in CFU/ml S. aureus (S. aureus) | Log Reduction in CFU/ml P. aeruginosa (P. aeruginosa) | killing of P. aeruginosa clinical strains (in words) [2] | Log Kill (500 μg/ml) S. aureus strain 8325-4 (S. aureus strain 8325-4 [3]) | Log Kill (500 μg/ml) P. aeruginosa ATCC 278533 (P. aeruginosa ATCC 27853) |
| --- | --- | --- | --- | --- | --- | --- |
| enzymatically active Cat G: cathepsin G purified from extracts of human PMN granules | 4 µM | 2.82 log | 2.41 log |  |  |  |
| CC[C@H](C)[C@H](NC(=O)[C@H](Cc1c[nH]c2ccccc12)NC(=O)[C@@H]1CCCN1C(=O)[C@H](CC(C)C)NC(=O)[C@H](Cc1ccccc1)NC(=O)[C@H](CO)NC(=O)[C@H](CO)NC(=O)[C@@H](NC(=O)[C@H](Cc1ccccc1)NC(=O)[C@H](CCCNC(=N)N)NC(=O)[C@@H](NC(=O)[C@H](Cc1ccccc1)NC(=O)[C@@H](NC(=O)[C@H](CCC(=O)O)NC(=O)[C@@H]1CCCN1C(=O)[C@@H]1CCCN1C(=O)[C@@H](NC(=O)CNC(=O)[C@H](CO)NC(=O)[C@H](CO)NC(=O)[C@H](CCCCN)NC(=O)CN)C(C)C)C(C)C)[C@@H](C)O)C(C)C)C(=O)N[C@@H](CCCNC(=N)N)C(=O)N[C@H](C(=O)N[C@H](C(=O)N[C@@H](CCSC)C(=O)N[C@@H](CCCNC(=N)N)C(=O)O)[C@@H](C)O)[C@@H](C)O [CG 198-223] (H-GKSSGVPPEVFTRFVSSFLPWIRTTMR-OH; N-terminus and C-terminus assumed) |  |  |  | some variability in effectiveness | 0.26 log | 5.73 log |
